A word on the inhibition: it is the drop in the measured response relative to a control, in per cent.

We go through 31 compounds from publication PMC4552634, “A New Set of Chemical Starting Points with Plasmodium falciparum Transmission-Blocking Potential for Antimalarial Drug Discovery” (PLoS ONE, 2015).

For the assay, the system named is P. falciparum stage V gametocytes. Put plainly: microbe, parasite or virus in culture. The conditions noted are these: Plasmodium falciparum, 48 h, read-out: % Inhibition. On the set-up: BacTiter-Glo ATP luminescence viability of purified stage V gametocytes in 384-well plates, per cent inhibition versus DMSO.

Take `Nc1c2c(nc3ccccc13)C(=Cc1ccc(O)cc1)CCC2` [TCMDC-142288]: the inhibition at 5 µM is -4.93%.
With `CC1=C(C(=O)OCCOCc2ccccc2)C(c2ccccc2C(F)(F)F)C(C(=O)OCCOCc2ccccc2)=C(C)N1` [TCMDC-142290], the inhibition at 5 µM was found to be 61.1%.
As for `Nc1c2c(nc3ccc(NC(=O)c4ccc([N+](=O)[O-])cc4)cc13)CCCC2` [TCMDC-142291], the inhibition at 5 µM was found to be 60.6%.
To `Nc1c2c(nc3ccc(C(=O)Nc4cc(I)c(O)c(I)c4)cc13)CCCC2` [TCMDC-142292] belongs -1.08%; to `CC(C)(C)c1cc([N+](=O)[O-])cc(C(=O)Nc2ccccc2C(F)(F)F)c1O` [TCMDC-142293], -4.47%.
`CCOc1cc(NCCSCc2nc[nH]c2C)nc2ccccc12` [TCMDC-142294]: the inhibition at 5 µM was determined as 26.1%.
In the case of `CON(CCCN(C)C)C(=N)N` [TCMDC-142297] it was 12.5%; in that of `CC(C)(C)NCC(O)COc1ccc(Cl)cc1C1=NNC(=O)CC1` (stereo not shown) [TCMDC-142298], 8.53%; in that of `CC(C)c1cc(Oc2c(I)cc(CCN=C(N)N)cc2I)ccc1O` [TCMDC-142299], 38.1%.
Turning to `CC(C)c1cc(Oc2c(I)cc(CCNCc3ccccc3)cc2I)ccc1O` [TCMDC-142300], the inhibition at 5 µM is -73.5%.
In the case of `Cc1[nH]cnc1CSCCNC(N)=NCCCCCCCCN=C(N)NCCSCc1nc[nH]c1C` [TCMDC-142301] it was -5.19%.
To `Cc1[nH]cnc1CSCCN/C(=N\C#N)NCCCCCCCCN/C(=N/C#N)NCCSCc1nc[nH]c1C` [TCMDC-142302] belongs 48.1%; to `Cc1ccc(Cc2cnc(NCCSCc3ccc(CN4CCOCC4)o3)[nH]c2=O)cn1` [TCMDC-142303], -5.99%; to `Cc1ccc(Cc2cnc(NCCSCc3ccc(CN(C)C)s3)[nH]c2=O)cn1` [TCMDC-142304], -3.6%.
With `CN=C(NO)NCCN(C)C` [TCMDC-142305], the inhibition at 5 µM was -1.82%.
In the case of `Oc1ccc(Cc2cc(Oc3c(I)cc(CCc4ncc[nH]4)cc3I)ccc2O)cc1` [TCMDC-142306] it was 59.2%; in that of `CC(C)c1cc(Oc2c(I)cc(CCCc3ncc[nH]3)cc2I)ccc1O` [TCMDC-142307], -127%.
On to `Oc1ccc(CCCc2cc(Oc3c(I)cc(CCc4ncc[nH]4)cc3I)ccc2O)cc1` [TCMDC-142308], for which the inhibition at 5 µM was -67%.
As for `Cc1cc(Br)cnc1CCCCN=C1NC(=O)CN1C` [TCMDC-142309], the inhibition at 5 µM turned out to be 5.26%.
On to `O=c1c(NCCCN(Cc2ccc(F)cc2)c2ccccn2)c(NCc2ccncc2)c1=O` [TCMDC-142310], for which the inhibition at 5 µM was determined as 91.6%.
As for `O=c1c(NCCCN(Cc2ccc(F)cc2)c2ccccn2)c(NCc2cccnc2)c1=O` [TCMDC-142311], the inhibition at 5 µM was 48%.
In the case of `[O-][s+]1nc(NCCCN(Cc2cccs2)c2ccccn2)c(NCc2ccccc2)n1` (stereo not shown) [TCMDC-142312] it was 5.1%.
For `O=C(OCc1ccccn1)c1nc2ccccc2[nH]1` [TCMDC-142313], the inhibition at 5 µM was determined as 43.6%.
In the case of `c1ccc(COc2ccnc(NCCCOc3cccc(CN4CCCCC4)c3)c2)cc1` [TCMDC-142314] it was 40%; in that of `c1cc(CN2CCCCC2)cc(OCCCNc2ccnc3ccccc23)c1` [TCMDC-142315], 42%; in that of `Cc1cc(Br)cnc1CCCCNc1cc(=O)c2ccccc2[nH]1` [TCMDC-142316], -5.57%.
Consider `CCCCN(CCCC)C(=O)CC(O)c1cc2c(Cl)cc(Cl)cc2c2cc(C(F)(F)F)ccc12` (stereo not shown) [TCMDC-142317], for which the inhibition at 5 µM came to 14.8%.
In the case of `CCCCN(CCCC)CCC(O)C(=Cc1ccc(Cl)cc1Cl)c1ccc(C(F)(F)F)cc1N` (stereo not shown) [TCMDC-142318] it was -17.1%; in that of `Cc1ccccc1Nc1nc(NCc2ccccc2)nc2ccccc12` [TCMDC-142319], 98.9%; in that of `COc1cccc2c(Oc3ccccc3C)ccnc12` [TCMDC-142320], -32.5%.
To `COc1cccc2c(Nc3ccccc3C)nc(Nc3ccccc3C)nc12` [TCMDC-142321] belongs 28.2%.
